Source: patent US20110076240A1, “Antifungal and Anti-Cariogenic Cellobio-Oligosaccharides Produced by Dextransucrase” (priority 2008, published 2011)

System: mutansucrase
Experiment: Inhibition of water insoluble glucan synthesis (absorbance at 550 nm; adherence to glass vials)
Assay type: biochemical, Streptococcus mutans and S. sorbrinus
Conditions: 50 mM test substance, 1 M sucrose, 37° C., 48 h
Protocol: Isolation of Oral Bacteria and Production of Mutansucrase: Oral bacteria were collected by a cotton swab from human teeth and streaked onto a brain heart infusion (BHI) agar containing 4% sucrose. The culture was grown at 37° C. until visible colonies of Streptococcus mutans and S. sorbrinus appeared. The colonies were grown in 1 L BHI at 37° C. with shaking at 150 rpm for 24-36 h to induce production of mutansucrase secreted outside the cell membrane. After incubation, the culture was harvested by centrifugation, and the supernatant with the mutansucrase was concentrated to 100 ml using a 30 K cut-off membrane filter. One unit of mutansucrase in the concentrated supernatant was defined as the amount of enzyme that catalyzes the formation of 1 μmol of fructose per minute at 37° C., pH 7.0, from 100 mM sucrose.
These cultures were grown in glass vials at 37° C. for 48 h.
The supernatants of individual reaction mixtures were discarded such that the insoluble glucans remained in the vial. To compare the amount of insoluble glucans produced, the synthesized glucans on the glass were washed with a HEPES buffer and dissolved in 0.5 N NaOH. The resulting wash was used to measure the soluble glucans. The absorbance of water insoluble glucans was measured at 550 nm. For visualization, synthesized glucans were dyed with a drop of dental disclosing solution.

O=C[C@H](O)[C@@H](O)[C@H](O[C@@H]1O[C@H](CO)[C@@H](O)[C@H](O)[C@H]1O)[C@H](O)CO [cellobiose]
insoluble glucans produced compared to the control mixture: did not affect
